In patent US20080132505A1 (Glaxo Group Limited, priority 2004, published 2008):

Biological target: human cannabinoid CB2 receptor (Homo sapiens, UniProt P34972)
Experiment: Cannabinoid CB2 receptor agonist activity (yeast reporter assay, FDGlu fluorescence)
Type: cell-based
Conditions: for EC50: EC50 value at the cloned human cannabinoid CB2 receptor; for Emax: read-out: efficacy value (Emax relative to HU210) at the cloned human cannabinoid CB2 receptor
Description: Determination of Cannabinoid CB2 Receptor Agonist Activity
The cannabinoid CB2 receptor agonist activity of the compounds of formula (I)-(IV) was determined in accordance with the following experimental method.
Yeast (Saccharomyces cerevisiae) cells expressing the human cannabinoid CB2 receptor were generated by integration of an expression cassette into the ura3 chromosomal locus of yeast strain MMY23. This cassette consisted of DNA sequence encoding the human CB2 receptor flanked by the yeast GPD promoter to the 5′ end of CB2 and a yeast transcriptional terminator sequence to the 3′ end of CB2. MMY23 expresses a yeast/mammalian chimeric G-protein alpha subunit in which the C-terminal 5 amino acids of Gpa1 are replaced with the C-terminal 5 amino acids of human Gαi3 (as described in Brown et al. (2000), Yeast 16:11-22). Cells were grown at 30° C. in liquid Synthetic Complete (SC) yeast media (Guthrie and Fink (1991), Methods in Enzymology, Vol. 194) lacking uracil, tryptophan, adenine and leucine to late logarithmic phase (approximately 6 OD600/ml).
Agonists were prepared as 10 mM stocks in DMSO. […] Agonist solutions in DMSO (1% final assay volume) were transferred into black, clear bottom, microtitre plates from NUNC (96- or 384-well). Cells were suspended at a density of 0.2 OD600/ml in SC media lacking histidine, uracil, tryptophan, adenine and leucine and supplemented with 10 mM 3-aminotriazole, 0.1M sodium phosphate pH 7.0, and […] fluorescein di-β-D-glucopyranoside (FDGlu). This mixture (50 ul per well for 384-well plates, 200 ul per well for 96-well plates) was added to agonist in the assay plates (Multidrop 384, Labsystems). After incubation at 30° C. for 24 hours, fluorescence resulting from degradation of FDGlu to fluorescein due to exoglucanase, an endogenous yeast enzyme produced during agonist-stimulated cell growth, was determined using a Spectrofluor microtitre plate reader (Tecan; excitation wavelength: 485 nm; emission wavelength: 535 nm). Fluorescence was plotted against compound concentration and iteratively curve fitted using a four parameter fit to generate a concentration effect value. Efficacy (Emax) was calculated from the equation
where Max[compound X] and Min[compound X] are the fitted maximum and minimum respectively from the concentration effect curve for compound X, and Max[HU210] and Min[HU210] are the fitted maximum and minimum respectively from the concentration effect curve for (6aR,10aR)-3-(1,1′-Dimethylheptyl)-6a,7,10,10a-tetrahydro-1-hydroxy-6,6-dimethyl-6H-dibenzo[b,d]pyran-9-methanol (HU210; available from Tocris). Equieffective molar ratio (EMR) values were calculated from the equation
Where EC50 [compound X] is the EC50 of compound X and EC50 [HU210] is the EC50 of HU210.

human cannabinoid CB2 receptor, sequence (P34972 whole entry): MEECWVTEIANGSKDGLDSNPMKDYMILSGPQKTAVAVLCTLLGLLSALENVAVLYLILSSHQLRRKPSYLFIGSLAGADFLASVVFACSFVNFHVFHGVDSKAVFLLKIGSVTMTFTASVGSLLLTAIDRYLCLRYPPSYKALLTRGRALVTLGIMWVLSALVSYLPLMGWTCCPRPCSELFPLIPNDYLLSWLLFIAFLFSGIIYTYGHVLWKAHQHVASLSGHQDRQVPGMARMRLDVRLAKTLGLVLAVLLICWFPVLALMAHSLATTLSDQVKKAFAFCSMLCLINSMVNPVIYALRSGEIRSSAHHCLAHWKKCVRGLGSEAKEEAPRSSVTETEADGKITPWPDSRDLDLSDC

activity in the CB2 assay described herein	SMILES	EC50 [nM]	Emax [%]
inactive	O=C(NCc1ccccc1Br)c1cnc(Nc2cccc(Cl)c2)nc1C(F)(F)F [2-(3-Chloro-phenylamino)-4-trifluoromethyl-pyrimidine-5-carboxylic acid 2-bromo-benzylamide]	–	–
inactive	COc1ccccc1CNC(=O)c1cnc(Nc2cccc(Cl)c2)nc1C(F)(F)F [2-(3-Chloro-phenylamino)-4-trifluoromethyl-pyrimidine-5-carboxylic acid 2-methoxy-benzylamide]	–	–
inactive	CN(Cc1ccccc1)C(=O)c1cnc(Nc2ccc(C(C)(C)C)cc2)nc1C(F)(F)F [2-(4-tert-butyl-phenylamino)-4-trifluoromethyl-pyrimidine-5-carboxylic acid benzyl-methyl-amide]	–	–
inactive	CC(C)(C)c1ccc(Nc2ncc(C(=O)NCc3ccccc3)c(C(F)(F)F)n2)cc1 [2-(4-tert-butyl-phenylamino)-4-trifluoromethyl-pyrimidine-5-carboxylic acid benzylamide]	–	–
–	O=C(c1cnc(Nc2cccc(Cl)c2)nc1C(F)(F)F)N1CCCCC1 [Example 1, 1-[2-(3-Chlorophenylamino)-4-trifluoromethylpyrimidin-5-yl]-1-piperidin-1-ylmethanone]	20 to 300	> 50
–	O=C(NCC1CCCC1)c1cnc(Nc2cccc(Cl)c2)nc1C(F)(F)F [Example 2, 2-(3-Chlorophenylamino)-4-trifluoromethylpyrimidine-5-carboxylic acid cyclopentylmethyl-amide]	20 to 300	> 50
–	O=C(c1cnc(Nc2cccc(Cl)c2)nc1C(F)(F)F)N1CCOCC1 [Example 3, 1-[2-(3-Chlorophenylamino)-4-trifluoromethylpyrimidin-5-yl]-1-morpholin-4-yl-methanone]	20 to 300	> 50
–	O=C(NCC1CCCCC1)c1cnc(Nc2cccc(Cl)c2)nc1C(F)(F)F [Example 4, 2-(3-Chlorophenylamino)-4-trifluoromethylpyrimidine-5-carboxylic acid cyclohexylmethylamide]	20 to 300	> 50
–	O=C(NCC1CCCCC1)c1cnc(Nc2ccccc2)nc1C(F)(F)F [Example 5]	–	> 50
–	O=C(c1cnc(Nc2cccc(Cl)c2Cl)nc1C(F)(F)F)N1CCOCC1 [Example 6, 1-[2-(2,3-Dichlorophenylamino)-4-trifluoromethylpyrimidin-5-yl]-1-morpholin-4-yl-methanone]	20 to 300	> 50
–	O=C(c1cnc(Nc2ccc(Cl)cc2Cl)nc1C(F)(F)F)N1CCOCC1 [Example 7, 1-[2-(2,4-Dichlorophenylamino)-4-trifluoromethylpyrimidin-5-yl]-1-morpholin-4-yl-methanone]	20 to 300	> 50
–	O=C(c1cnc(Nc2cc(Cl)ccc2Cl)nc1C(F)(F)F)N1CCOCC1 [Example 9, 1-[2-(2,5-Dichlorophenylamino)-4-trifluoromethylpyrimidin-5-yl]-1-morpholin-4-yl-methanone]	20 to 300	> 50
–	O=C(c1cnc(Nc2cccc(F)c2)nc1C(F)(F)F)N1CCOCC1 [Example 10, 1-[2-(3-Fluorophenylamino)-4-trifluoromethylpyrimidin-5-yl]-1-morpholin-4-yl-methanone]	20 to 300	> 50
–	O=C(c1cnc(Nc2cccc(Br)c2)nc1C(F)(F)F)N1CCOCC1 [Example 11, 1-[2-(3-Bromophenylamino)-4-trifluoromethylpyrimidin-5-yl]-1-morpholin-4-yl-methanone]	20 to 300	> 50
–	O=C(c1cnc(Nc2cccc(Br)c2)nc1C(F)(F)F)N1CCCCC1 [Example 12]	–	> 50
–	O=C(c1cnc(Nc2cc(Cl)cc(Cl)c2)nc1C(F)(F)F)N1CCOCC1 [Example 13, 1-[2-(3,5-Dichlorophenylamino)-4-trifluoromethylpyrimidin-5-yl]-1-morpholin-4-yl-methanone]	20 to 300	> 50

activity in the CB2 assay described herein	SMILES	EC50 [nM]	Emax [%]
–	O=C(NC1CCCC1)c1cnc(Nc2cccc(Cl)c2)nc1C(F)(F)F [Example 14, 2-(3-Chlorophenylamino)-4-trifluoromethylpyrimidine-5-carboxylic acid cyclopentylamide]	20 to 300	> 50
–	O=C(NCC1CCCCC1)c1cnc(Nc2cccc(Cl)c2Cl)nc1C(F)(F)F [Example 15, 2-(2,3-Dichlorophenylamino)-4-trifluoromethylpyrimidine-5-carboxylic acid cyclohexylmethyl-amide]	20 to 300	> 50
–	O=C(NCC1CCCCC1)c1cnc(Nc2ccc(Cl)cc2Cl)nc1C(F)(F)F [Example 16, 2-(2,4-Dichlorophenylamino)-4-trifluoromethylpyrimidine-5-carboxylic acid cyclohexylmethyl-amide]	20 to 300	> 50
–	O=C(NCC1CCCCC1)c1cnc(Nc2ccc(Cl)c(Cl)c2)nc1C(F)(F)F [Example 17, 2-(3,4-Dichlorophenylamino)-4-trifluoromethylpyrimidine-5-carboxylic acid cyclohexylmethyl-amide]	20 to 300	> 50
–	O=C(NCC1CCCCC1)c1cnc(Nc2cc(Cl)cc(Cl)c2)nc1C(F)(F)F [Example 18, 2-(3,5-Dichlorophenylamino)-4-trifluoromethylprimidine-5-carboxylic acid cyclohexylmethyl-amide]	20 to 300	> 50
–	O=C(NCC1CCCCC1)c1cnc(Nc2cccc(Br)c2)nc1C(F)(F)F [Example 20, 2-(3-Bromophenylamino)-4-trifluoromethylpyrimidine-5-carboxylic acid cyclohexylmethyl-amide]	20 to 300	> 50
–	O=C(NCC1CCCCC1)c1cnc(Nc2c(Cl)cccc2Cl)nc1C(F)(F)F [Example 21, 2-(2,6-Dichlorophenylamino)-4-trifluoromethylpyrimidine-5-carboxylic acid cyclohexylmethyl-amide]	20 to 300	> 50
–	O=C(NCC1CCOCC1)c1cnc(Nc2cccc(Cl)c2)nc1C(F)(F)F [Example 22, 2-(3-Chlorophenylamino)-4-trifluoromethylpyrimidine-5-carboxylic acid (tetrahydro-pyran-4-ylmethyl)-amide]	20 to 300	> 50
–	O=C(NC1CCC1)c1cnc(Nc2cccc(Cl)c2)nc1C(F)(F)F [Example 23, 2-(3-Chlorophenylamino)-4-trifluoromethylpyrimidine-5-carboxylic acid cyclobutyl-amide]	20 to 300	> 50
–	O=C(c1cnc(Nc2ccccc2)nc1C(F)(F)F)N1CCCCC1 [Example 24, 1-(2-Phenylamino-4-trifluoromethyl-pyrimidin-5-yl)-1-piperidin-1-yl-methanone]	300 to 1000	> 50
–	O=C(c1cnc(Nc2ccccc2)nc1C(F)(F)F)N1CCOCC1 [Example 25, 1-Morpholin-4-yl-1-(2-phenylamino-4-trifluoromethyl-pyrimidin-5-yl)-methanone]	300 to 1000	> 50
–	N#CCNC(=O)c1cnc(Nc2cccc(Cl)c2)nc1C(F)(F)F [Example 26, 2-(3-Chloro-phenylamino)-4-trifluoromethyl-pyrimidine-5-carboxylic acid cyanomethyl-amide]	300 to 1000	> 50
–	CC(C)(C)CCNC(=O)c1cnc(Nc2cccc(Cl)c2)nc1C(F)(F)F [Example 27, 2-(3-Chloro-phenylamino)-4-trifluoromethyl-pyrimidine-5-carboxylic acid (3,3-dimethyl-butyl)-amide]	300 to 1000	> 50
–	CC(C)(C)CNC(=O)c1cnc(Nc2cccc(Cl)c2)nc1C(F)(F)F [Example 28, 2-(3-Chloro-phenylamino)-4-trifluoromethyl-pyrimidine-5-carboxylic acid (2,2-dimethyl-propyl)-amide]	300 to 1000	> 50
–	O=C(NC1CCC1)c1cnc(Nc2cccc(F)c2)nc1C(F)(F)F [Example 29, 2-(3-Fluoro-phenylamino)-4-trifluoromethyl-pyrimidine-5-carboxylic acid cyclobutylamide]	300 to 1000	> 50
